From patent US7205308B2, “Trisubstituted 7-aminopyrazolopyrimidines as cyclin dependent kinase inhibitors” (Schering Corporation, priority 2002, dated 2007)
Values joined by “and” are separate entries in the source; they are usually repeats but may differ in a detail not shown here. Identical values can stand only once.

Assays:
Cyclin E/CDK2 = target: T1, Cyclin E/CDK2 (Homo sapiens, UniProt P24941); assay: Cyclin E/CDK2 in vitro kinase assay (SPA, 33P-ATP, biotinylated Histone H1 peptide); format: biochemical; conditions: recombinant cyclin E/CDK2 from SF9 cells; 8 point serial dilutions in duplicate; 1 hour at room temperature
T1 construct: The expressed protein was approximately 34 kDa in size; made in house; host or cells: SF9 insect cells (baculovirus co-infection)

melting point	Structure (SMILES)	IC50 (Cyclin E/CDK2)
> 200 °C (dec.)	CC(CO)NS(=O)(=O)c1ccc(Nc2cc(-c3ccccc3)nc3c(Br)cnn23)cc1 (stereo not shown)	–
202 to 204 °C	CS(=O)(=O)c1ccc(Nc2cc(-c3ccccc3)nc3c(Br)cnn23)cc1	–
192 to 194 °C	CCc1cnn2c(Nc3ccc(S(C)(=O)=O)cc3)cc(-c3ccccc3)nc12	–
206 to 208 °C	O=S(=O)(O)CCNS(=O)(=O)c1ccc(Nc2cc(-c3ccccc3)nc3c(Br)cnn23)cc1	–
127 to 129 °C	CC(C)(C)OC(=O)N1CCC(NS(=O)(=O)c2ccc(Nc3cc(-c4ccccc4)nc4c(Br)cnn34)cc2)CC1	–
98 to 100 °C	CC(CO)(CO)NS(=O)(=O)c1ccc(Nc2cc(-c3ccccc3)nc3c(Br)cnn23)cc1	–
108 to 110 °C	O=S(=O)(N[C@@H](CO)Cc1ccccc1)c1ccc(Nc2cc(-c3ccccc3)nc3c(Br)cnn23)cc1	–
214 to 215 °C	CC(C)c1cc(Nc2ccc(S(C)(=O)=O)cc2)n2ncc(Br)c2n1	–
147 to 150 °C	O=S(=O)(Nc1ccccc1)c1ccc(Nc2cc(-c3ccccc3)nc3c(Br)cnn23)cc1	–
232 to 235 °C	CS(=O)(=O)c1ccc(Nc2cc(-c3ccccc3F)nc3c(Cl)cnn23)cc1	–
195 to 197 °C	CC(C)(C)OC(=O)NCCNS(=O)(=O)c1ccc(Nc2cc(-c3ccccc3)nc3c(Br)cnn23)cc1	–
228 to 230 °C	CN1CCN(S(=O)(=O)c2ccc(Nc3cc(-c4ccccc4)nc4c(Br)cnn34)cc2)CC1	–
182 to 184 °C	COC(=O)CNS(=O)(=O)c1ccc(Nc2cc(-c3ccccc3)nc3c(Br)cnn23)cc1	–
237 to 239 °C	CN(C)S(=O)(=O)c1ccc(Nc2cc(-c3ccccc3)nc3c(Br)cnn23)cc1	–
87 to 90 °C	O=S(=O)(NCCO)c1cccc(Nc2cc(-c3ccccc3)nc3c(Br)cnn23)c1	–
210 to 211 °C	CS(=O)(=O)c1ccc(Nc2cc(-c3ccccc3)nc3c(C4CC4)cnn23)cc1	–
> 250 °C	CCc1cnn2c(Nc3ccc(S(=O)(=O)O)cc3)cc(-c3ccccc3)nc12	–
102 to 105 °C	O=S(=O)(N[C@H](CO)Cc1ccccc1)c1ccc(Nc2cc(-c3ccccc3)nc3c(Br)cnn23)cc1	–
249 to 253 °C	CS(=O)(=O)c1ccc(Nc2cc(-c3ccc(Cl)cc3)nc3c(Br)cnn23)cc1	–
144 °C	CC(C)(C)c1cc(Nc2ccccc2)n2ncc(Br)c2n1	–
210 to 212 °C	CS(=O)(=O)c1ccc(Nc2cc(-c3cccc(C(F)(F)F)c3)nc3c(Br)cnn23)cc1	–
> 250 °C	O=S(=O)(O)c1ccc(Nc2cc(-c3ccccc3F)nc3c(Br)cnn23)cc1	–
216 to 218 °C	O=S(=O)(NCc1ccccc1)c1ccc(Nc2cc(-c3ccccc3)nc3c(Br)cnn23)cc1	–
115 to 120 °C	CC(O)CNS(=O)(=O)c1cccc(Nc2cc(-c3ccccc3)nc3c(Br)cnn23)c1 (stereo not shown)	–
101 to 103 °C	O=S(=O)(NCc1ccccn1)c1ccc(Nc2cc(-c3ccccc3)nc3c(Br)cnn23)cc1	–
165 to 168 °C	O=S(=O)(NCCCO)c1ccc(Nc2cc(-c3ccccc3)nc3c(Br)cnn23)cc1	–

Further lines, the molecule ahead of its results:

Structure (SMILES)	melting point	IC50 (Cyclin E/CDK2)
O=S(=O)(NC1CCCC1)c1ccc(Nc2cc(-c3ccccc3)nc3c(Br)cnn23)cc1	> 200 °C (dec.)	–
O=S(=O)(O)c1cccc(Nc2cc(-c3ccccc3)nc3c(Br)cnn23)c1	206 to 208 °C	–
Clc1ccccc1-c1cc(Nc2ccccc2)n2ncc(Br)c2n1 [Example 2]	–	510 nM
O=S(=O)(Nc1ccncc1)c1ccc(Nc2cc(-c3ccccc3)nc3c(Br)cnn23)cc1 [Example 38]	192 to 195 °C	40 nM
CCc1cnn2c(Nc3ccc(S(=O)(=O)NCCN(C)C)cc3)cc(-c3ccccc3)nc12	99 to 101 °C	–
O=S(=O)(NCc1cccnc1)c1ccc(Nc2cc(-c3ccccc3)nc3c(Br)cnn23)cc1	110 to 114 °C	–
O=S(=O)(NCCO)c1ccc(Nc2cc(-c3ccccc3)nc3c(Br)cnn23)cc1 [Example 30]	175 to 177 °C	29 nM
Fc1ccccc1-c1cc(Nc2ccccc2)n2ncc(Cl)c2n1 [Example 3]	112 to 116 °C	42 nM
O=S(=O)(NC(CO)CO)c1ccc(Nc2cc(-c3ccccc3)nc3c(Br)cnn23)cc1 [Example 50]	122 to 124 °C	30 nM
CN(C)CCNS(=O)(=O)c1ccc(Nc2cc(-c3ccccc3)nc3c(Br)cnn23)cc1 [Example 43]	165 to 167 °C	34 nM
CNS(=O)(=O)c1ccc(Nc2cc(-c3ccccc3)nc3c(Br)cnn23)cc1 [Example 32]	231 to 233 °C	57 nM
COCCNS(=O)(=O)c1ccc(Nc2cc(-c3ccccc3)nc3c(Br)cnn23)cc1 [Example 42]	172 to 173 °C	70 nM
CC(C)c1cnn2c(Nc3ccc(S(C)(=O)=O)cc3)cc(-c3ccccc3)nc12	213 to 216 °C	–
NS(=O)(=O)c1ccc(Nc2cc(-c3ccccc3)nc3c(Br)cnn23)cc1 [Example 31]	206 to 208 °C	45 nM
CN(C)CCCNS(=O)(=O)c1ccc(Nc2cc(-c3ccccc3)nc3c(Br)cnn23)cc1 [Example 53]	78 to 80 °C	11 nM
CS(=O)(=O)c1ccc(Nc2cc(-c3ccccc3F)nc3c(Br)cnn23)cc1	117 to 118 °C	–
CCNS(=O)(=O)c1ccc(Nc2cc(-c3ccccc3)nc3c(Br)cnn23)cc1 [Example 28]	101 to 104 °C	80 nM
CS(=O)(=O)c1ccc(Nc2cc(-c3ccccc3Cl)nc3c(Br)cnn23)cc1 [Example 1]	–	400 nM and 1400 nM
CC(C)c1cc(Nc2ccccc2)n2ncc(Br)c2n1	166 to 168 °C	–
CN(C)CC(C)(C)CNS(=O)(=O)c1ccc(Nc2cc(-c3ccccc3)nc3c(Br)cnn23)cc1 [Example 48]	163 to 165 °C	25 nM
O=S(=O)(O)c1ccc(Nc2cc(-c3ccccc3)nc3c(Br)cnn23)cc1 [Example 22]	> 250 °C	82 nM
O=S(=O)(c1ccc(Nc2cc(-c3ccccc3)nc3c(Br)cnn23)cc1)N(CCO)CCO [Example 47]	90 to 92 °C	34 nM
